According to patent US20080287425A1, “Method for Controlling Chinch Bugs” (FMC CORPORATION, priority 2005, published 2008):

Test system: adult southern chinch bugs
Experiment: LC-50 of bifenthrin on chinch bug populations, dipped St. Augustine grass stolons in Petri dishes
Format: in vivo, Blissus insularis
Conditions: about 24 hours at about 28° C
Description: Developing Chinch Bug Resistance to Bifenthrin (Synthetic Pyrethroid) Serial dilutions of bifenthrin were made from Talstar Flowable 7.9% AI (FMC, Philadelphia, Pa.). Freshly harvested St. Augustine grass stolons (about 10 cm long) were dipped into the dilutions and allowed to air dry. The stolons were placed individually into Petri dishes (15 cm diameter) containing moist filter paper to maintain high humidity. Twenty adult southern chinch bugs were placed into each Petri dish and held for about 24 hours at about 28° C. Sample sizes of adults tested ranged from 200 (20 each at 10 dose levels) to 480 (20 each at 24 dose levels) for each location to estimate LC-50 for that location. Different numbers of adults tested per location depended on availability of adults plus variability noted in testing. Since the objective of this study was to estimate LC-50 values, doses expected to give 25 to 75% mortality for best LC-50 were used. Mortality was defined as virtually no movement by an adult during a 5 minute observation period through a 5× large magnifying lens. The no movement criterion was used to avoid ambiguities of comatose, unable to stand, moribund, etc.

Cc1c(COC(=O)[C@@H]2[C@H](/C=C(\Cl)C(F)(F)F)C2(C)C)cccc1-c1ccccc1 (racemic) [bifenthrin]
LC-50 (chinch bugs from Belle Glade, control problem in the field: No): 2.6 ppm | LC-50 (chinch bugs from Clermont, control problem in the field: Yes): 78.7 ppm | LC-50 (chinch bugs from Daytona Beach, control problem in the field: Yes): 243.3 ppm | LC-50 (chinch bugs from Fort Pierce, control problem in the field: No): 2.8 ppm | LC-50 (chinch bugs from Gainesville, control problem in the field: No): 10.6 ppm | LC-50 (chinch bugs from Kendall Lakes, control problem in the field: No): 9.3 ppm | LC-50 (chinch bugs from Key Largo, control problem in the field: Yes): 148.2 ppm | LC-50 (chinch bugs from Lithia, control problem in the field: No): 5.4 ppm | LC-50 (chinch bugs from Orlando, control problem in the field: No): 2.3 ppm | LC-50 (chinch bugs from Ormond Beach, control problem in the field: Yes): 698.8 ppm | LC-50 (chinch bugs from Palm Coast, control problem in the field: Yes): 1,693 ppm | LC-50 (chinch bugs from Palmetto, control problem in the field: Yes): 493.6 ppm | LC-50 (chinch bugs from Royal Palm Beach, control problem in the field: No): 7.3 ppm | LC-50 (chinch bugs from Sarasota, control problem in the field: Yes): 89.2 ppm | LC-50 (chinch bugs from Spring Hill, control problem in the field: Yes): 159.3 ppm | LC-50 (chinch bugs from Tamarac, control problem in the field: No): 9.7 ppm
